How the values were obtained:
[1] = tested on: normal human umbilical vein endothelial cells (HUVEC); assay: HUVEC growth inhibition assay (VEGF-induced); assay type: cell-based; conditions: Homo sapiens, HUVEC, 72 h, read-out: HUVEC (IC50 (nM)), growth in the presence of VEGF 10 ng/mL, 3 days
Experimental: The absorbance value was measured with ENVISION™ (PerkinElmer Co., Ltd.) at 450 nm. The absorbance values of the wells without adding the test substance but with VEGF addition was defined as 100% and the absorbance values of the wells with neither the test substance nor VEGF addition was defined as 0%.

[2] = tested on: human stomach cancer cell line SNU-16 (FGFR2 gene amplification); assay: SNU-16 growth inhibition assay; assay type: cell-based; conditions: Homo sapiens, SNU-16, 72 h, read-out: SNU-16 (IC50 (nM)), cell growth, 3 days, Cell Counting Kit-8
Experimental: In this assay, the growth inhibitory activity of a test substance in a human stomach cancer cell line harboring FGFR2 gene amplification is measured.
Then, 10 μL of Cell Counting Kit-8 (Dojindo Laboratories, CK04) was added to each well, and the resultant was incubated for 1 to 2 hours in a 5% CO2 incubator (37° C.) to cause a color reaction. The absorbance value was measured with ENVISION™ (PerkinElmer Co., Ltd.) at 450 nm.

Compound	IC50 [1] [nM]	IC50 [2] [nM]
CCOCCOc1cc2c(ccn2C(=O)NC)cc1Oc1ccnc(NC(=O)c2ccc(C3CCN(CC)CC3)nc2)c1 [Example 28, 6-(2-Ethoxyethoxy)-5-((2-(6-(1-ethylpiperidin-4-yl)nicotinamide)pyridin-4-yl)oxy)-N-methyl-1H-indole-1-carboxamide]	664	7.3
CCOCCOc1cc2c(ccn2C(=O)NC)cc1Oc1ccnc(NC(=O)c2ccc(CN3CCC[C@H]3CO)cc2)c1 [Example 29]	600	8.8
CCOCCOc1cc2c(ccn2C(=O)NC)cc1Oc1ccnc(NC(=O)c2ccc(CN3CC[C@@H](O)C3)s2)c1 [Example 31]	186	4.7
CCN1CCC(c2ccc(C(=O)Nc3cc(Oc4cc5ccn(C(=O)NC)c5cc4OCCCF)ccn3)cc2)CC1 [Example 33, 5-((2-(4-(1-Ethylpiperidin-4-yl)benzamide)pyridin-4-yl)oxy)-6-(3-fluoropropoxy)-N-methyl-1H-indole-1-carboxamide]	274	8.1
CNC(=O)n1ccc2cc(Oc3ccnc(NC(=O)c4ccc(CN5CCC[C@@H]5CO)s4)c3)c(OC)cc21 [Example 34]	195	14
CNC(=O)n1ccc2cc(Oc3ccnc(NC(=O)c4ccc(CN5CCC[C@H]5CO)s4)c3)c(OC)cc21 [Example 35]	139	9.8
CNC(=O)n1ccc2cc(Oc3ccnc(NC(=O)c4ccc(CN5C[C@@H](C)N[C@@H](C)C5)s4)c3)c(OC)cc21 [Example 36]	136	11
CCN1CCN(Cc2ccc(C(=O)Nc3cc(Oc4cc5ccn(C(=O)NC)c5cc4OC)ccn3)s2)CC1 [Example 37]	79.1	9.4
CNC(=O)n1ccc2cc(Oc3ccnc(NC(=O)c4ccc(CN5CCC(O)CC5)s4)c3)c(OC)cc21 [Example 38]	137	8
CNC(=O)n1ccc2cc(Oc3ccnc(NC(=O)c4ccc(C5CCN(CC(C)(C)O)CC5)cc4)c3)c(OC)cc21 [Example 39]	124	7.8
CNC(=O)n1ccc2cc(Oc3ccnc(NC(=O)c4ccc(C5CCN(C(C)C)CC5)cc4)c3)c(OC)cc21 [Example 40]	162	8.3
CNC(=O)n1ccc2cc(Oc3ccnc(NC(=O)c4ccc(OC5CCN(C[C@@H](C)O)CC5)cc4)c3)c(OC)cc21 [Example 41]	179	9.3
CNC(=O)n1ccc2cc(Oc3ccnc(NC(=O)c4ccc(OC5CCN(C[C@H](C)O)CC5)cc4)c3)c(OC)cc21 [Example 42]	184	14.1
CCN1CCC(Oc2ccc(C(=O)Nc3cc(Oc4cc5ccn(C(=O)NC)c5cc4OC)ccn3)cc2)CC1 [Example 43]	166	11.8
CNC(=O)n1ccc2cc(Oc3ccnc(NC(=O)c4cnn(C5CCN(C[C@@H](C)O)CC5)c4)c3)c(OC)cc21 [Example 44]	392	16.3
CNC(=O)n1ccc2cc(Oc3ccnc(NC(=O)c4cnn(C5CCN(C[C@H](C)O)CC5)c4)c3)c(OC)cc21 [Example 45]	379	15.5
CNC(=O)n1ccc2cc(Oc3ccnc(NC(=O)c4cnn(C5CCN(C(C)C)CC5)c4)c3)c(OC)cc21 [Example 46]	402	17.4
CNC(=O)n1ccc2cc(Oc3ccnc(NC(=O)c4ccc(C5CN(C(C)C)C5)cc4)c3)c(OC)cc21 [Example 47]	174	13.1
CNC(=O)n1ccc2cc(Oc3ccnc(NC(=O)c4ccc(C5CN(CC(C)(C)O)C5)cc4)c3)c(OC)cc21 [Example 48]	77.8	11.7
CCN1CC(c2ccc(C(=O)Nc3cc(Oc4cc5ccn(C(=O)NC)c5cc4OC)ccn3)cc2)C1 [Example 49]	163	9.6
CNC(=O)n1ccc2cc(Oc3ccnc(NC(=O)c4ccc(CN5CCC[C@@H]5CO)cc4)c3)c(OC)cc21 [Example 50]	394	16.6
CNC(=O)n1ccc2cc(Oc3ccnc(NC(=O)c4ccc(CN5CCC[C@H]5CO)cc4)c3)c(OC)cc21 [Example 51]	410	12.5
CNC(=O)n1ccc2cc(Oc3ccnc(NC(=O)c4ccc(CN5CC[C@H](O)C5)cc4)c3)c(OC)cc21 [Example 52]	388	14.4
CNC(=O)n1ccc2cc(Oc3ccnc(NC(=O)c4ccc(CN5CC[C@@H](O)C5)cc4)c3)c(OC)cc21 [Example 53]	401	14.5
CNC(=O)n1ccc2cc(Oc3ccnc(NC(=O)c4ccc(C5CCN(C[C@@H](C)O)CC5)cc4)c3)c(OC)cc21 [Example 54]	86.7	6.4
CCN1CCN(CCOc2ccc(C(=O)Nc3cc(Oc4cc5ccn(C(=O)NC)c5cc4OC)ccn3)cc2)CC1 [Example 55]	201	20.8
CNC(=O)n1ccc2cc(Oc3ccnc(NC(=O)c4ccc(CCN5CCC(O)CC5)cc4)c3)c(OC)cc21 [Example 56]	96.8	15

Compound	IC50 [1] [nM]	IC50 [2] [nM]
CNC(=O)n1ccc2cc(Oc3ccnc(NC(=O)c4ccc(C5CCN(C)CC5)cc4)c3)c(OC)cc21 [Example 57]	127	7.6
CCOc1cc2c(ccn2C(=O)NC)cc1Oc1ccnc(NC(=O)c2ccc(C3CCN(C(C)C)CC3)cc2)c1 [Example 59]	253	14.5
CCOc1cc2c(ccn2C(=O)NC)cc1Oc1ccnc(NC(=O)c2ccc(C3CCN(C[C@@H](C)O)CC3)cc2)c1 [Example 60]	178	14.7
CCOc1cc2c(ccn2C(=O)NC)cc1Oc1ccnc(NC(=O)c2ccc(C3CCN(C[C@H](C)O)CC3)cc2)c1 [Example 61]	182	10.7
CCOc1cc2c(ccn2C(=O)NC)cc1Oc1ccnc(NC(=O)c2ccc(N3CCC(N4CCCC4)CC3)cc2)c1 [Example 62]	223	27.4
CCOc1cc2c(ccn2C(=O)NC)cc1Oc1ccnc(NC(=O)c2ccc(C3CCN(CCO)CC3)cc2)c1 [Example 63]	170	9.6
CCOc1cc2c(ccn2C(=O)NC)cc1Oc1ccnc(NC(=O)c2ccc(C3CCN(C)CC3)cc2)c1 [Example 64]	175	10.3
CCOc1cc2c(ccn2C(=O)NC)cc1Oc1ccnc(NC(=O)c2ccc(CN3CCC(O)CC3)cc2)c1 [Example 65]	575	23.6
CNC(=O)n1ccc2cc(Oc3ccnc(NC(=O)c4ccc(C5CCN(C[C@H](C)O)CC5)cc4)c3)c(OC(C)C)cc21 [Example 66]	203	16.1
CNC(=O)n1ccc2cc(Oc3ccnc(NC(=O)c4ccc(C5CCN(CCO)CC5)cc4)c3)c(OC(C)C)cc21 [Example 67]	223	17.6
CCN1CCC(c2ccc(C(=O)Nc3cc(Oc4cc5ccn(C(=O)NC)c5cc4OC(C)C)ccn3)cc2)CC1 [Example 68]	256	20
CNC(=O)n1ccc2cc(Oc3ccnc(NC(=O)c4ccc(CN5CCC(O)CC5)cc4)c3)c(OC(C)C)cc21 [Example 70]	610	22.4
CNC(=O)n1ccc2cc(Oc3ccnc(NC(=O)c4ccc(CN5CC[C@H](O)C5)cc4)c3)c(OCCCF)cc21 [Example 71]	648	17
CNC(=O)n1ccc2cc(Oc3ccnc(NC(=O)c4ccc(CN5CC[C@@H](O)C5)cc4)c3)c(OCCCF)cc21 [Example 72]	681	17.1
CNC(=O)n1ccc2cc(Oc3ccnc(NC(=O)c4ccc(CN5CCC(O)CC5)cc4)c3)c(OCCCF)cc21 [Example 73]	703	17.4
CNC(=O)n1ccc2cc(Oc3ccnc(NC(=O)c4ccc(C5CCN(C[C@@H](C)O)CC5)cc4)c3)c(OCCCF)cc21 [Example 74]	198	8.4
CNC(=O)n1ccc2cc(Oc3ccnc(NC(=O)c4ccc(C5CCN(C[C@H](C)O)CC5)cc4)c3)c(OCCCF)cc21 [Example 75]	211	7.3
CNC(=O)n1ccc2cc(Oc3ccnc(NC(=O)c4ccc(C5CCN(C)CC5)cc4)c3)c(OCCCF)cc21 [Example 76]	248	7.5
CNC(=O)n1ccc2cc(Oc3ccnc(NC(=O)c4ccc(C5CCN(C(C)C)CC5)nc4)c3)c(OCCOC)cc21 [Example 77]	1030	9.6
CCN1CCC(c2ccc(C(=O)Nc3cc(Oc4cc5ccn(C(=O)NC)c5cc4OCCOC)ccn3)cn2)CC1 [Example 78]	835	6.2
CNC(=O)n1ccc2cc(Oc3ccnc(NC(=O)c4ccc(C5CN(C[C@@H](C)O)C5)cc4)c3)c(OCCOC)cc21 [Example 80]	182	3.8
CNC(=O)n1ccc2cc(Oc3ccnc(NC(=O)c4ccc(C5CN(C[C@H](C)O)C5)cc4)c3)c(OCCOC)cc21 [Example 81]	126	3.8
CNC(=O)n1ccc2cc(Oc3ccnc(NC(=O)c4ccc(CN5CCC[C@@H]5CO)s4)c3)c(OCCOC)cc21 [Example 82]	264	6.2
CNC(=O)n1ccc2cc(Oc3ccnc(NC(=O)c4ccc(CN5CC[C@H](O)C5)s4)c3)c(OCCOC)cc21 [Example 84]	255	6.2
CNC(=O)n1ccc2cc(Oc3ccnc(NC(=O)c4ccc(CN5CC[C@@H](O)C5)s4)c3)c(OCCOC)cc21 [Example 85]	235	6.9
CNC(=O)n1ccc2cc(Oc3ccnc(NC(=O)c4ccc(CN5CCC(O)CC5)s4)c3)c(OCCOC)cc21 [Example 86]	250	6.2

From patent US8933099B2, “Monocyclic pyridine derivative” (Eisai R&D Management Co., Ltd., priority 2013, dated 2015)
